Assay results as given in the supplement of paper PMC11628255, “Interference of metal ions on the bioluminescent signal of firefly, Renilla, and NanoLuc luciferases in high-throughput screening assays” (Frontiers in Chemistry, 2024).

Assays:
Assay in all cases: normalised percent inhibition of luminescence (vs positive and negative controls); higher = stronger inhibition
[1] = system: Renilla luciferase (RLuc)
Protocol: (§1)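 Concentration-response (>=11 concentrations) of metal salts on purified FLuc, NLuc or RLuc luminescence in screening (SC) or 100 mM HEPES (H) buffer; salt pre-incubated with enzyme 10 min at RT, read 10 min after substrate. Normalised percent inhibition vs plate positive (PTC-124, isradipine, BTS) and DMSO negative controls; triplicate wells.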

[2] = system: NanoLuc luciferase (NLuc)
Protocol: as §1

[3] = system: firefly luciferase (FLuc)
Protocol: as §1

O.O.O.O.O.O.O.O=S(=O)([O-])[O-].[Mg+2] [magnesium sulfate]
normalised percent inhibition [%], 100 mM HEPES buffer
Settings | [1] | [2] | [3]
metal salt concentration 0.0001 mM | -6.9 | 6.62 | -19.2
metal salt concentration 0.00025 mM | -4.68 | 1.39 | -27.4
metal salt concentration 0.0005 mM | -11.6 | -0.0243 | -11
metal salt concentration 0.001 mM | -17 | -0.202 | -24
metal salt concentration 0.025 mM | -30.1 | -2.3 | -31.5
metal salt concentration 0.05 mM | -11.6 | 0.502 | -6.49
metal salt concentration 0.1 mM | -22.7 | 1.8 | -20
metal salt concentration 0.5 mM | -0.986 | 1.22 | -19.2
metal salt concentration 1 mM | -23.4 | -4.91 | -17.2
metal salt concentration 2.5 mM | -40.4 | -6.56 | -12.5
metal salt concentration 5 mM | -22.4 | -5.03 | 4.85

[Cl][Pt-2]([Cl])([Cl])[Cl].[K+].[K+] [potassium tetrachloroplatinate(II)]
normalised percent inhibition [%]
Settings | [1] | [2] | [3]
metal salt concentration 0.0001 mM, 100 mM HEPES buffer | 6.41 | 1.21 | -10.3
metal salt concentration 0.00025 mM, 100 mM HEPES buffer | 4.68 | -0.51 | 4.97
metal salt concentration 0.0005 mM, 100 mM HEPES buffer | -6.41 | 2.19 | 6.27
metal salt concentration 0.001 mM, 100 mM HEPES buffer | -11.3 | 0.76 | 12.9
metal salt concentration 0.002 mM, screening conditions buffer | 13.4 | 6.88 | 23.2
metal salt concentration 0.005 mM, screening conditions buffer | 5.74 | 2.83 | 28.2
metal salt concentration 0.01 mM, screening conditions buffer | 8.68 | 1.24 | 32.2
metal salt concentration 0.02 mM, screening conditions buffer | 2.57 | 5.06 | 39.4
metal salt concentration 0.025 mM, 100 mM HEPES buffer | 8.38 | 4.56 | 39.2
metal salt concentration 0.05 mM, 100 mM HEPES buffer | -3.94 | 10.3 | 56.4
metal salt concentration 0.05 mM, screening conditions buffer | 19.4 | 18.1 | 68.7
metal salt concentration 0.1 mM, 100 mM HEPES buffer | 5.67 | 15.1 | 79.8
metal salt concentration 0.1 mM, screening conditions buffer | 27.8 | 41.9 | 86
metal salt concentration 0.2 mM, screening conditions buffer | 41.3 | 60.3 | 98.8
metal salt concentration 0.5 mM, 100 mM HEPES buffer | 40.7 | 76.6 | 100.5
metal salt concentration 0.5 mM, screening conditions buffer | 66.7 | 91.6 | 100.5
metal salt concentration 1 mM, 100 mM HEPES buffer | 69.3 | 87.7 | 100.2
metal salt concentration 1 mM, screening conditions buffer | 95.3 | 116 | 99.57
metal salt concentration 2.5 mM, 100 mM HEPES buffer | 97.4 | 93.7 | 100.4
metal salt concentration 2.5 mM, screening conditions buffer | 105.3 | 129.7 | 100.7
metal salt concentration 5 mM, 100 mM HEPES buffer | 106 | 96.98 | 100.4
metal salt concentration 5 mM, screening conditions buffer | 106.2 | 134.6 | 100.8

O=[N+]([O-])[O-].[Ag+] [silver nitrate]
normalised percent inhibition [%]
Settings | [1] | [2] | [3]
metal salt concentration 1.56 nM, screening conditions buffer | – | – | -3.5
metal salt concentration 3.13 nM, screening conditions buffer | – | – | 8.07
metal salt concentration 6.25 nM, screening conditions buffer | – | – | -11.6
metal salt concentration 12.5 nM, screening conditions buffer | – | – | 2.67
metal salt concentration 25 nM, screening conditions buffer | – | – | -5.14
metal salt concentration 50 nM, screening conditions buffer | – | – | 1.37
metal salt concentration 0.0001 mM, 100 mM HEPES buffer | 2.89 | 1.65 | 98
metal salt concentration 0.0001 mM, screening conditions buffer | – | – | 0.486
metal salt concentration 0.00025 mM, 100 mM HEPES buffer | -2.96 | -1.44 | 100.3
metal salt concentration 0.00025 mM, screening conditions buffer | – | – | 54.3
metal salt concentration 0.0005 mM, 100 mM HEPES buffer | -1.85 | -1.42 | 99.84
metal salt concentration 0.0005 mM, screening conditions buffer | – | – | 100.1
metal salt concentration 0.001 mM, 100 mM HEPES buffer | -11.8 | 2.97 | 100.3
metal salt concentration 0.001 mM, screening conditions buffer | – | – | 100.19
metal salt concentration 0.002 mM, screening conditions buffer | 10.7 | 20.8 | 100.6
metal salt concentration 0.005 mM, screening conditions buffer | 8.28 | 80.1 | 100.7
metal salt concentration 0.01 mM, 100 mM HEPES buffer | -3.09 | – | –
metal salt concentration 0.01 mM, screening conditions buffer | 13 | 88 | 100.4
metal salt concentration 0.02 mM, 100 mM HEPES buffer | -4.38 | – | –
metal salt concentration 0.02 mM, screening conditions buffer | 14.2 | 107 | 100.7
metal salt concentration 0.025 mM, 100 mM HEPES buffer | 84.8 | 99.59 | 100.4
metal salt concentration 0.04 mM, 100 mM HEPES buffer | 47.3 | – | –
metal salt concentration 0.05 mM, 100 mM HEPES buffer | 104 | 51.4 | 100.3
metal salt concentration 0.05 mM, screening conditions buffer | 38.8 | 118 | 99.8
metal salt concentration 0.1 mM, 100 mM HEPES buffer | 107 | 100.8 | 100.6
metal salt concentration 0.1 mM, screening conditions buffer | 81.2 | 119 | –
metal salt concentration 0.2 mM, screening conditions buffer | 101 | 133.6 | –
metal salt concentration 0.5 mM, 100 mM HEPES buffer | 106 | 101.7 | 100
metal salt concentration 0.5 mM, screening conditions buffer | 105.9 | 119 | –
metal salt concentration 1 mM, 100 mM HEPES buffer | 106 | 101.7 | 99.8
metal salt concentration 1 mM, screening conditions buffer | 105.9 | 120 | –
metal salt concentration 2.5 mM, 100 mM HEPES buffer | 106.7 | 101.97 | 100.4
metal salt concentration 2.5 mM, screening conditions buffer | 106.2 | 134.8 | –
metal salt concentration 5 mM, 100 mM HEPES buffer | 106 | 102 | 100.5
metal salt concentration 5 mM, screening conditions buffer | 106.1 | 135.3 | –
